Results as given in patent US20230348506A1, “MACROCYCLIC PANTETHEINE DERIVATIVES AND USES THEREOF” (VectivBio Comet AG, priority 2019, published 2023).

Key:
[1] = test system: primary adherent fibroblast cell line derived from an Methylmalonic Acidemia (MMA) patient (GM01673, Coriell Institute for Medical Research); test: Mitochondrial respiration (Seahorse XFe96, OCR), Spare Capacity AUC; assay type: cell-based, human; conditions: 10 μM compound, 1 μM FCCP for 20 cycles, relative to vehicle
Method: The effect of the compounds of the present disclosure on mitochondrial respiration was measured with a XFe96 Extracellular Flux Analyzer (Seahorse Bioscience, Agilent Technologies) and Oxygen consumption Rate (OCR) and Extracellular acidification rate (ECAR) determined.
Cell culture and treatments. Primary adherent fibroblasts were cultured in minimum essential medium (MEM) (Gibco, 25030081) supplemented with 2 mM L-Glutamine (Gibco, 25030081), 15% fetal bovine serum (FBS) (Gibco, 26400044) and 1% penicillin/streptomycin (Gibco, 5140122) at 37° C. and 5% CO2. Cells were collected for either passaging or experiment at ˜70-80% confluence. Cells were obtained by trypsinization and seeded at 10,000 cells/well in cell culture microplates (Seahorse Bioscience, 101085-004) and allowed to adhere for 48 hours in culture media. […]
Determining the optimized cell density and concentrations for stress test, such as FCCP, were achieved through methods well known to those of skill in the art. After baseline measurements of OCR, cells were challenged with compounds of the present disclosure at different concentrations (10 to 50 μM) or vehicle (DMSO, 0.1%) and a post-compound baseline was recorded. OCR was measured after sequentially adding to each well 1.5 μg/ml oligomycin (inhibitor of ATP synthase Sigma-Aldrich, 753531), then maximal OCR was determined with carbonyl cyanide 4-(trifluoromethoxy) phenylhydrazone (FCCP, Sigma-Aldrich, C2920), (uncoupler of oxidative phosphorylation) and 1.0 μM of rotenone (Sigma-Aldrich, R8875) plus antimycin A (Sigma-Aldrich, A8674) (inhibitors of mitochondrial complex I and III) for determination of rotenone-antimycin insensitive respiration together with Hoechst for nuclear staining in situ when normalized to cell counts. After the analysis and nuclear staining, the XFp microplate was transferred to the Cytation 5, and the nuclear images were captured, the individual nuclei were identified and counted by BioTek Gen5 software. […]

[2] = test system: Methylmalonic Acidemia (MMA) Primary fibroblasts (Tsi 5224 Trans-Hit Bio, 21498 Telethon Network of Genetic Biobanks); test: Measurement of ATP (ATPlite assay); assay type: cell-based, human; conditions: 10 μM compound for 2 hours
Method: Primary adherent fibroblasts were cultured in minimum essential medium (MEM) (Gibco, 25030081) supplemented with 2 mM L-Glutamine (Gibco, 25030081), 15% fetal bovine serum (FBS) (Gibco, 26400044) and 1% penicillin/streptomycin (Gibco, 5140122) at 37° C. and 5% CO2. Cells were collected for either passaging or experiment at ˜70-80% confluence. Cells were obtained by trypsinization and seeded in cell culture microplates either white plate (Thermo Fisher Scientific, 152028) for luminescent measurement or black plate (Thermo Fisher Scientific, 165305) for fluorescent based read out for different assays listed below. Cells were obtained by trypsinization and […] were seeded and allowed to adhere for 16-18 hours to have confluency around 70-80% in the cell well with culture media. After 24 hours prior to measurements (37° C., 5% CO2) media was changed to Dulbecco's Modified Eagle Medium (DMEM, Agilent Seahorse cat #103575-100) with the appropriate supplements (1 mM glucose, 2 mM L-glutamine, 1 mM pyruvate, 10% FBS).
Assay was performed according to manufacturer instructions (ATPlite Assay Perkin Elmer, 6016941). 50 μl of cell lysis buffer was added to each well with cells in 100 μl of media and incubated for 5 mins at RT in an orbital shaker at 700 rpm to lyse the cells and stabilize the ATP. […]

CC1(C)COC(=O)CCC(=O)SCCNC(=O)CCNC(=O)[C@@H]1O [Compound 206, (R)-15-hydroxy-16,16-dimethyl-1-oxa-6-thia-9,13-diazacycloheptadecane-2,5,10,14-tetraone]
increase of Spare Capacity AUC ([1]; medium with 1 mM glucose): at least 50% | increase of Spare Capacity AUC ([1]; medium with 10 mM glucose, 2 mM glutamine, 1 mM pyruvate): > 10% | increase of ATP levels [2]: at least 5%
